Measurements taken from publication PMC3047498 (Journal of andrology, 2010).

Key:
[1] = system: endogenous testosterone production; experiment: Suppression of endogenous testosterone production by acyline; format: in vivo, men; conditions: 300 µg/kg acyline; for Serum testosterone concentration 24 hours after acyline administration: before oral testosterone
[2] = system: endogenous testosterone production; conditions: 300 µg/kg acyline, normal healthy men; ref Herbst et al, 2004; cited from earlier work
[3] = testosterone plus finasteride group

For acyline, the “Serum DHT concentration 24 hours after the acyline injection” value [1, 3] was 0.54 ± 0.32 nmol/L, the “Serum testosterone concentration 24 hours after acyline administration” value [1, 3] was 2.3 ± 1.4 nmol/L and the “Serum DHT concentration 24 hours after the acyline injection” value ([1]; testosterone-only group) was 0.6 ± 0.32 nmol/L. The “Serum testosterone concentration 24 hours after acyline administration” value ([1]; testosterone-only group) was 2.0 ± 1.3 nmol/L, the “Duration of testosterone suppression” value [2] was 2 weeks and the “Time to suppress testosterone to castrate levels” value [2] was at most 24 h.
